The test system of data set [1] is ion channel site. Further details: method as in PMID 26325093. The note with it: displacement binding studies; cited from earlier work.
Data set [2] has as its target ion channel of NMDA-R. Also noted: method as in PMID 25648682. The note with it: unlabelled compounds; rat forebrain membranes; read-out: concentrations that inhibit specific binding of [^3H]MK-801; cited from earlier work.
For data set [3], the system named is NMDA-R. Also noted: method as in PMID 26661185. The conditions noted are these: humans; intravenous ketamine 0.3 mg · kg^−1; on average; cited from earlier work.
Data set [4] is described as follows: Plasma ketamine concentration during PET. The format is in vivo, human. From the text:
The final arterial plasma input function was derived using both continuous and discrete arterial blood data. The input function was corrected for plasma to whole blood ratio, metabolites, and time delay. For each scan, two additional plasma input functions were generated to investigate the effect of within-subject and between-subject variability in plasma data. For the within-subject averaged input function, the mean of PET1 and PET2 [^18F]PK-209 parent fractions per subject were used at each of the eight sample timepoints for both scans. For the population-averaged input function, the mean parent fractions for all five subjects in the TRT and ketamine groups (i.e., 10 scans) were taken at each timepoint. The manual arterial blood samples were also used for assessment of the plasma ketamine concentration. The area under the ketamine concentration–time curve was estimated by means of the trapezoidal rule.
(§1) The (S+)-isomer of ketamine (0.5 mg · kg^−1) was dissolved in NaCl 50 mL and administered intravenously in a pseudo-steady state model with a sub-acute loading dose. First, ketamine was administered for 40 min at a rate of 0.006 mg · kg^−1 · min^−1 followed by a 130 min equilibrium phase at 0.002 mg · kg^−1 · min^−1. [^18F]PK-209 injection and start of PET were performed at 10 min into the equilibrium phase, following 0.26 mg · kg^−1 administration in the preceding 50 min.

The nature of data set [5]: Tolerability of ketamine infusion. The format is in vivo, human. The procedure: as §1
On the set-up of data set [6]: method as in PMID 18176855. The note with it: 1.1 mg ∙ kg^−1 S-ketamine over 75 min; cited from earlier work.
In data set [7] the test system is PCP binding site. The conditions noted are these: cited from earlier work.
Data set [8] deals with NMDA-R ion channel site. Further details: method as in PMID 26325093. The note with it: rats, 3 mg ∙ kg^−1 IV, cited from earlier work.

Where two headings read alike, the source gives them in different places.

Take `C[C@]12N[C@H](Cc3ccccc31)c1ccccc12` [MK-801]: in data set [1], the “potency relative to (±)ketamine at the ion channel site” value is given as “two orders of magnitude more potent”.

In the case of `COc1cccc(N(C)C(=N)Nc2cc(SC)ccc2Cl)c1` [GMOM, reference compound], in data set [2], the K i is 21.7 nM.

As for `COc1cccc(N(C)C(=N)Nc2cc(SC)ccc2Cl)c1` [[^11C]GMOM, [11C]N-(2-chloro-5-thiomethylphenyl)-N′-(3-methoxy-phenyl)-N′-methylguanidine], in data set [3], the “reduction of radiotracer net influx rate (Ki) in whole brain gray matter” value was 66%.

As for `CNC1(c2ccccc2Cl)CCCCC1=O` (stereo not drawn) [ketamine], the “mean plasma ketamine concentration, plateau” value in data set [4] (between 20 and 60 min after the start of PET, 0.5 mg ∙ kg^−1 infusion) is recorded as ~ 100 ng ∙ mL^−1. In addition, the “mean plasma ketamine concentration” value in data set [4] (end of the scan, 160 min since the start of infusion) is reported as ~ 70 ng ∙ mL^−1. Besides, in data set [5] (S-ketamine 0.5 mg · kg^−1 intravenous infusion, healthy subjects), the tolerability result is listed as “well tolerated by all subjects”. For the same compound, in data set [5] (at the start of PET scanning), the feelings of dissociation entry is “reported by all subjects”. Besides, in data set [6], the mean plasma concentration is 173 ng/mL.

For `CSc1cccc(N(C)C(N)=Nc2cc(SCC[18F])ccc2Cl)c1` [[^18F]GE-179], the “block of the PET signal by cold GE-179” value in data set [7] (GE-179 0.6 mg ∙ kg^−1 at steady state, bolus-plus-infusion, anesthetized non-human primates) is on record as “did not significantly block the PET signal”. Moreover, the “specificity of the PET signal” value in data set [7] (preclinical in vivo evaluation) is “largely non-specific”.

Take `CNC1(c2ccccc2Cl)CCCCC1=O` (racemic) [(±)ketamine]: the “inhibition of [^3H]MK-801 binding” value is given as 67% in data set [8] (1 min post-dosing) and 19% in data set [8] (20 min post-dose).

These data come from PMC6063804 (EJNMMI Research, 2018).
